Data published in patent US20250205344A1, “2,4-DIOXOTETRAHYDROPYRIMIDINYL DERATIVES AS DEGRONS IN PROTACS” (GLAXOSMITHKLINE INTELLECTUAL PROPERTY DEVELOPMENT LIMITED, priority 2022, published 2025).
Counter-ions that a name gives are not always drawn.

Biological target: T1, Androgen Receptor (Homo sapiens, UniProt P10275, T878A)
T1 construct: the AR gene was modified, using CRISPR/Cas9 editing, so the expressed AR protein included an 11 amino acid HiBiT tag; endogenous in cells; host or cells: clonal LnCaP-derived line, AR gene edited by CRISPR/Cas9
T1 sequence (P10275 whole entry T878A): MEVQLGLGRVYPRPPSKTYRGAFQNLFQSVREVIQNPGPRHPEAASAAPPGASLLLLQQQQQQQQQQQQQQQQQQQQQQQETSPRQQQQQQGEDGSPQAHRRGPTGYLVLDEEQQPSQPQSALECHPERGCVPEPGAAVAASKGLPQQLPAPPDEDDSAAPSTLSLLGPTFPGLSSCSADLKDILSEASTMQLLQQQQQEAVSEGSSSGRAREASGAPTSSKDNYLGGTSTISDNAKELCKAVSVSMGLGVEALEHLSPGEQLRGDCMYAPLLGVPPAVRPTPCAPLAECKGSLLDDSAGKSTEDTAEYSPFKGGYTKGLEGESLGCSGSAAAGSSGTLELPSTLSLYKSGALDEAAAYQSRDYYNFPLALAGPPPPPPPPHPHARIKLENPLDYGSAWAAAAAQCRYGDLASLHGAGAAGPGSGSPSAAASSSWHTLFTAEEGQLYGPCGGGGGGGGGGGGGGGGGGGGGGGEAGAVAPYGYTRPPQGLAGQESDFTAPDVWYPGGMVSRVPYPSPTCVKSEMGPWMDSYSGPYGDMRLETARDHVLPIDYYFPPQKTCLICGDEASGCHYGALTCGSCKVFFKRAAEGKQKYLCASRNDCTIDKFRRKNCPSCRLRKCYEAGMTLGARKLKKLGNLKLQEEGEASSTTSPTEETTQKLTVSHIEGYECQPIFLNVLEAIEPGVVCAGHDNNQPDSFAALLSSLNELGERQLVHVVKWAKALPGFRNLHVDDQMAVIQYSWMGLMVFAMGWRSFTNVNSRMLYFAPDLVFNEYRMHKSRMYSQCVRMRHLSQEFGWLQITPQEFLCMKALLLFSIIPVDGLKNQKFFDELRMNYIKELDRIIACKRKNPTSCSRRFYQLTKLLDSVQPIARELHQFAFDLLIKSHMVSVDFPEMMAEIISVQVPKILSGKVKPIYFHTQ
T1 sequence (Q96SW2 whole entry partner): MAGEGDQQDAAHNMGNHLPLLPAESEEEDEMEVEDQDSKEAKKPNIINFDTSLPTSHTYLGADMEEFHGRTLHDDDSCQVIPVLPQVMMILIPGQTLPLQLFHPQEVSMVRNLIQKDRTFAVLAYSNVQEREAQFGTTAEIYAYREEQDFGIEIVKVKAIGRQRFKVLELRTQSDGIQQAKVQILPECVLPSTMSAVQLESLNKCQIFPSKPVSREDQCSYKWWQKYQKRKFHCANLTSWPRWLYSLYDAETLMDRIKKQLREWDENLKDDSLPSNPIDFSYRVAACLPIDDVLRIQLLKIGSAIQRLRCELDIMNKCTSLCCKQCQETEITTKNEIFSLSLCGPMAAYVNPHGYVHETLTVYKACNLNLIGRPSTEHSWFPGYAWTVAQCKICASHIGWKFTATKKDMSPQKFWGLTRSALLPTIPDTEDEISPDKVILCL
T1 sequence (Q16531 whole entry partner): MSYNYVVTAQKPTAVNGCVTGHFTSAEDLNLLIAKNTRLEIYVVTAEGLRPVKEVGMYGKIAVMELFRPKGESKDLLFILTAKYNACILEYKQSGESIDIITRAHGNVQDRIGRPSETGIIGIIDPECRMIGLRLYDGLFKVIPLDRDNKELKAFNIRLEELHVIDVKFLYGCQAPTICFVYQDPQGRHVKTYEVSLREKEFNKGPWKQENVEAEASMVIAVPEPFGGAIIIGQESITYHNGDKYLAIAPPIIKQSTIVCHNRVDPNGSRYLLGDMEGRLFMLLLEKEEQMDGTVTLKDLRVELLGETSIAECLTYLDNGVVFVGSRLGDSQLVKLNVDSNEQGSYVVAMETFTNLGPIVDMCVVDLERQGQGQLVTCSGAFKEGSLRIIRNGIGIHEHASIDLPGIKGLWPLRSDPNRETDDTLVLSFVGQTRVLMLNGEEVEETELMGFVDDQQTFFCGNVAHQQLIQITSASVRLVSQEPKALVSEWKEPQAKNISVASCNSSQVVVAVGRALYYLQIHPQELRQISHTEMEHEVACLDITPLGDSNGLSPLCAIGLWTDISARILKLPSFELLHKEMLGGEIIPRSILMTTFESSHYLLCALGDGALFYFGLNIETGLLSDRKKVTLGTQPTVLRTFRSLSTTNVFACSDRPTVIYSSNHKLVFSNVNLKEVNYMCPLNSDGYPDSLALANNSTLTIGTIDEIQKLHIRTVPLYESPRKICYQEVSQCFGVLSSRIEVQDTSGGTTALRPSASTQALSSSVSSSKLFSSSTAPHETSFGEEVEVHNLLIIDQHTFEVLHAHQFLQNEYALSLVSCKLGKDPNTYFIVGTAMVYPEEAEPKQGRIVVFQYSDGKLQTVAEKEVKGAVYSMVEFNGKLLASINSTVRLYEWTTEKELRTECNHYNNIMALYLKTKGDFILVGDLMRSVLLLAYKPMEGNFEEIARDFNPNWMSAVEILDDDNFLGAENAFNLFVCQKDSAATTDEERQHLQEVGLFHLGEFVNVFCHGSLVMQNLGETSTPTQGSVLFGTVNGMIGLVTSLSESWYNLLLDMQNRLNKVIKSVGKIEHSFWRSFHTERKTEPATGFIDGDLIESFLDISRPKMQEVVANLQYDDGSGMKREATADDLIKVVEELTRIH
Assay: Androgen Receptor Degradation Assay (Nano-Glo HiBiT)
Type: cell-based
Conditions: LNCaP, 18 h, HiBiT-tagged AR in human LnCaP cells, read-out: mean asymptote max
Protocol: Degradation of Androgen Receptor protein in human LnCaP cells treated with PROTACs was quantified using the Nano-Glo® HiBiT Lytic Detection System (Promega) in 384 well assay plate format. A clonal LnCaP derived cell line was first established in which the AR gene was modified, using CRISPR/Cas9 editing, so the expressed AR protein included an 11 amino acid HiBiT tag at its amino-terminus. 10 mM DMSO stock solutions of PROTACs were prepared and diluted across an 11 concentration, 3 fold increment range, and 25 nL dispensed into a white opaque bottomed 384 well assay plate (Thermofisher) using an acoustic ECHO dispenser (Labcyte). […] For the assay, cells were detached from flask and resuspended with assay medium (FluoroBrite™ DMEM supplemented with 10% heat inactivated FBS, penicillin 50 U/mL and streptomycin 50 ug/mL (Thermofisher)). The cell suspension was centrifuged at 400 g for 5 min and the pellet resuspended in assay medium. 25 μL of cell suspension containing 10,000 cells was dispensed into each well of the assay plate containing the test compounds, which was then incubated for 18 h at 37° C./5% CO2. Control wells were included on each assay plate, with assay medium without cells being the no AR remaining 100% effect control, and cells treated with DMSO vehicle only, without PROTAC, the 0% effect control. 25 μL of Nano-Glo® HiBiT lysis buffer supplemented with LgBiT protein and Nano-Glo® substrate (Promega) was added to each well and the plate shaken at 500 rpm for 10 min at room temperature. The intensity of luminescence was measured using a PHERAstar microplate reader (BMG Labtech) and the % AR protein remaining in each well calculated by normalising the raw luminescence value to the above control wells. Parameters corresponding to the potency and efficacy estimates of the PROTACs were obtained from these normalised luminescence values using software (IDBS ActivityBase). These included the DC50 and the Dmax estimates. Two versions of the DC50, called relative DC50 and absolute DC50, were typically generated. These are the inflection point of a fitted 4 parameter sigmoidal response curve and the interpolated concentration of PROTAC corresponding to 50% of the protein being degraded, respectively. The Dmax parameter was the maximum experimentally observed degradation and the asymptote max parameter the fitted response curve asymptote maximum.

Structure (SMILES) | Dmax [%]
CN(C)C(=O)c1cc(N2CCC(=O)NC2=O)c2ccn(C3CCN(CC4CCN(c5ccc(C(=O)N[C@H]6CC[C@H](Oc7ccc(C#N)c(Cl)c7)CC6)nn5)CC4)CC3)c2c1 [EAR35, 1-(1-((1-(6-(((1r,4r)-4-(3-Chloro-4-cyanophenoxy)cyclohexyl)carbamoyl)pyridazin-3-yl)piperidin-4-yl)methyl)piperidin-4-yl)-4-(2,4-dioxotetrahydropyrimidin-1(2H)-yl)-N,N-dimethyl-1H-indole-6-carboxamide] | ≥ 50
N#Cc1ccc(O[C@H]2CC[C@H](NC(=O)c3ccc(N4CCCC(CN5CCC(n6ncc7c(N8CCC(=O)NC8=O)cccc76)CC5)C4)nn3)CC2)cc1Cl (stereo partly drawn) [EAR36, N-((1r,4r)-4-(3-Chloro-4-cyanophenoxy)cyclohexyl)-6-(3-((4-(4-(2,4-dioxotetrahydropyrimidin-1(2H)-yl)-1H-indazol-1-yl)piperidin-1-yl)methyl)piperidin-1-yl)pyridazine-3-carboxamide] | ≥ 50
N#Cc1ccc(O[C@H]2CC[C@H](NC(=O)c3cnc(N4CCC(CN5CCC(n6ncc7c(N8CCC(=O)NC8=O)cccc76)CC5)CC4)cn3)CC2)cc1C(F)(F)F [EAR38, N-((1r,4r)-4-(4-Cyano-3-(trifluoromethyl)phenoxy)cyclohexyl)-5-(4-((4-(4-(2,4-dioxotetrahydropyrimidin-1(2H)-yl)-1H-indazol-1-yl)piperidin-1-yl)methyl)piperidin-1-yl)pyrazine-2-carboxamide hydrochloride] | ≥ 50
N#Cc1ccc(O[C@H]2CC[C@H](NC(=O)c3cnc(N4CCC(CN5CCC(n6ncc7c(N8CCC(=O)NC8=O)cccc76)CC5)CC4)cn3)CC2)cc1Cl [EAR39, N-((1r,4r)-4-(3-Chloro-4-cyanophenoxy)cyclohexyl)-5-(4-((4-(4-(2,4-dioxotetrahydropyrimidin-1(2H)-yl)-1H-indazol-1-yl)piperidin-1-yl)methyl)piperidin-1-yl)pyrazine-2-carboxamide hydrochloride] | ≥ 50
N#Cc1ccc(O[C@H]2CC[C@H](NC(=O)c3ccc(N4CCC(CN5CCC(n6ncc7c(N8CCC(=O)NC8=O)cccc76)CC5)CC4)nc3)CC2)cc1C(F)(F)F [EAR40, N-((1r,4r)-4-(4-Cyano-3-(trifluoromethyl)phenoxy)cyclohexyl)-6-(4-((4-(4-(2,4-dioxotetrahydropyrimidin-1(2H)-yl)-1H-indazol-1-yl)piperidin-1-yl)methyl)piperidin-1-yl)nicotinamide hydrochloride] | ≥ 50
N#Cc1ccc(O[C@H]2CC[C@H](NC(=O)c3ccc(N4CCC(CN5CCC(n6ncc7c(N8CCC(=O)NC8=O)cccc76)CC5)CC4)nc3)CC2)cc1Cl [EAR42, N-((1r,4r)-4-(3-Chloro-4-cyanophenoxy)cyclohexyl)-6-(4-((4-(4-(2,4-dioxotetrahydropyrimidin-1(2H)-yl)-1H-indazol-1-yl)piperidin-1-yl)methyl)piperidin-1-yl)nicotinamide hydrochloride] | ≥ 50
N#Cc1ccc(O[C@H]2CC[C@H](NC(=O)c3ccc(N4CCC(CN5CCC(n6ncc7c(N8CCC(=O)NC8=O)cccc76)CC5)CC4)nn3)CC2)cc1Cl [EAR43, N-((1r,4r)-4-(3-Chloro-4-cyanophenoxy)cyclohexyl)-6-(4-((4-(4-(2,4-dioxotetrahydropyrimidin-1(2H)-yl)-1H-indazol-1-yl)piperidin-1-yl)methyl)piperidin-1-yl)pyridazine-3-carboxamide] | ≥ 50
N#Cc1ccc(O[C@H]2CC[C@H](NC(=O)c3ccc(N4CCC(CN5CCC(n6ncc7c(N8CCC(=O)NC8=O)cccc76)CC5)CC4)nn3)CC2)cc1C(F)(F)F [EAR44, N-((1r,4r)-4-(4-Cyano-3-(trifluoromethyl)phenoxy)cyclohexyl)-6-(4-((4-(4-(2,4-dioxotetrahydropyrimidin-1(2H)-yl)-1H-indazol-1-yl)piperidin-1-yl)methyl)piperidin-1-yl)pyridazine-3-carboxamide] | ≥ 50
N#Cc1ccc(O[C@H]2CC[C@H](NC(=O)c3ccc(N4CCC(CN5CCC(n6ccc7c(N8CCC(=O)NC8=O)cncc76)CC5)CC4)nn3)CC2)cc1C(F)(F)F [EAR45, N-((1r,4r)-4-(4-Cyano-3-(trifluoromethyl)phenoxy)cyclohexyl)-6-(4-((4-(4-(2,4-dioxotetrahydropyrimidin-1(2H)-yl)-1H-pyrrolo[2,3-c]pyridin-1-yl)piperidin-1-yl)methyl)piperidin-1-yl)pyridazine-3-carboxamide] | ≥ 50
N#Cc1ccc(O[C@H]2CC[C@H](NC(=O)c3ccc(N4CCC(CN5CCC(n6ccc7c(N8CCC(=O)NC8=O)cncc76)CC5)CC4)nn3)CC2)cc1Cl [EAR48, N-((1r,4r)-4-(3-Chloro-4-cyanophenoxy)cyclohexyl)-6-(4-((4-(4-(2,4-dioxotetrahydropyrimidin-1(2H)-yl)-1H-pyrrolo[2,3-c]pyridin-1-yl)piperidin-1-yl)methyl)piperidin-1-yl)pyridazine-3-carboxamide hydrochloride] | ≥ 50
N#Cc1ccc(O[C@H]2CC[C@H](NC(=O)c3ccc(N4CCC(CN5CCC(n6ccc7c(N8CCC(=O)NC8=O)cncc76)CC5)CC4)nc3)CC2)cc1Cl [EAR50, N-((1r,4r)-4-(3-Chloro-4-cyanophenoxy)cyclohexyl)-6-(4-((4-(4-(2,4-dioxotetrahydropyrimidin-1(2H)-yl)-1H-pyrrolo[2,3-c]pyridin-1-yl)piperidin-1-yl)methyl)piperidin-1-yl)nicotinamide hydrochloride] | ≥ 50
N#Cc1ccc(O[C@H]2CC[C@H](NC(=O)c3ccc(N4CCC(CN5CCC(n6ncc7c(N8CCC(=O)NC8=O)nccc76)CC5)CC4)nn3)CC2)cc1Cl [EAR51, N-((1r,4r)-4-(3-Chloro-4-cyanophenoxy)cyclohexyl)-6-(4-((4-(4-(2,4-dioxotetrahydropyrimidin-1(2H)-yl)-1H-pyrazolo[4,3-c]pyridin-1-yl)piperidin-1-yl)methyl)piperidin-1-yl)pyridazine-3-carboxamide] | ≥ 50
N#Cc1ccc(O[C@H]2CC[C@H](NC(=O)c3ccc(N4CCC(CN5CCC(n6ncc7c(N8CCC(=O)NC8=O)cncc76)CC5)CC4)nn3)CC2)cc1Cl [EAR53, N-((1r,4r)-4-(3-Chloro-4-cyanophenoxy)cyclohexyl)-6-(4-((4-(4-(2,4-dioxotetrahydropyrimidin-1(2H)-yl)-1H-pyrazolo[3,4-c]pyridin-1-yl)piperidin-1-yl)methyl)piperidin-1-yl)pyridazine-3-carboxamide hydrochloride] | ≥ 50
N#Cc1ccc(O[C@H]2CC[C@H](NC(=O)c3ccc(N4CCC(n5ccc6c(N7CCC(=O)NC7=O)cccc65)CC4)cc3)CC2)cc1Cl [EAR54, N-((1r,4r)-4-(3-Chloro-4-cyanophenoxy)cyclohexyl)-4-(4-(4-(2,4-dioxotetrahydropyrimidin-1(2H)-yl)-1H-indol-1-yl)piperidin-1-yl)benzamide] | ≥ 50
CC1(C)[C@H](NC(=O)c2ccc(N3CCC(CN4CCC(n5ccc6c(N7CCC(=O)NC7=O)cccc65)CC4)CC3)nn2)C(C)(C)[C@H]1Oc1ccc(C#N)c(Cl)c1 [EAR55, N-((1r,3r)-3-(3-Chloro-4-cyanophenoxy)-2,2,4,4-tetramethylcyclobutyl)-6-(4-((4-(4-(2,4-dioxotetrahydropyrimidin-1(2H)-yl)-1H-indol-1-yl)piperidin-1-yl)methyl)piperidin-1-yl)pyridazine-3-carboxamide] | ≥ 50
